Measurements from ChEMBL document CHEMBL1137396, “Discovery of (1R,5S)-N-[3-amino-1-(cyclobutylmethyl)-2,3-dioxopropyl]- 3-[2(S)-[[[(1,1-dimethylethyl)amino]carbonyl]amino]-3,3-dimethyl-1-oxobutyl]- 6,6-dimethyl-3-azabicyclo[3.1.0]hexan-2(S)-carboxamide (SCH 503034), a selective, potent, orally bioavailable hepatitis C virus NS3 protease …” (J Med Chem, 2006).

Experiments:
[1] = Selectivity for human neutrophil elastase (HNE) over HCV NS3 protease
[2] = molecular target: NS3 (Hepatitis C virus, UniProt A3EZJ3); assay: Binding affinity at HCV NS3 protease; parameters: species or system Hepatitis C virus subtype 1b
[3] = tested on: Huh-5-2; assay: Cytotoxicity against hepatoma cell line containing HCV replicon measured as change in GAPDH RNA level; type: functional, Homo sapiens
[4] = tested on: Hepatocyte; assay: Inhibition of HCV replication in hepatocytes measured by cellular replicon assay; type: functional; details: Hepatitis C virus
[5] = AUC(0-6h) in rat at 10 mg, po; type: ADME, organism-based; parameters: time < 6 hr, dose 10 mg, route oral; details: plasma
[6] = AUC in rat at 10 mg/kg, po; type: ADME, organism-based; parameters: dose 10 mg/kg, route oral; details: plasma
[7] = Bioavailability in rat at 10 mg/kg, po; type: ADME, organism-based; details: in vivo
[8] = AUC in rat; type: ADME, organism-based; details: plasma

NS3, sequence (A3EZJ3 whole entry): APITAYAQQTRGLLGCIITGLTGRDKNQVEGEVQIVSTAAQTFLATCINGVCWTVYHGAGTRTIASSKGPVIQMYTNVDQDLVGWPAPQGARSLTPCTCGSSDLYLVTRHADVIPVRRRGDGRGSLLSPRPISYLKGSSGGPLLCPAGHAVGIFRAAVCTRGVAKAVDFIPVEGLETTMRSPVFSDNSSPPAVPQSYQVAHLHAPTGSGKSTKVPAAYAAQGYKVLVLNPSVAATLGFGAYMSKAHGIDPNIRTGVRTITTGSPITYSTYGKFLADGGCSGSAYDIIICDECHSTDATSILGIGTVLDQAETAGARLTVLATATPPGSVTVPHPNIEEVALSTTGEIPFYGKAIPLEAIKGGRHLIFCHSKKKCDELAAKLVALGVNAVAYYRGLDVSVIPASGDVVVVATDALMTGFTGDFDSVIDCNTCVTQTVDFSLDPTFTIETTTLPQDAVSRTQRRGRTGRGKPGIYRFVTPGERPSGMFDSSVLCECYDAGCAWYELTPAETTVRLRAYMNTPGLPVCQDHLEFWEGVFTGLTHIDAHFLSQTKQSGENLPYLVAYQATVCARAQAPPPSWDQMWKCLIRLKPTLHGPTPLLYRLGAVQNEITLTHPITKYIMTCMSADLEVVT

Row | SMILES | Selectivity ratio [1] | Ki [2] | other results
1 | C=CCNC(=O)C(=O)C(CCC)NC(=O)[C@@H]1[C@@H]2[C@H](CN1C(=O)[C@@H](NC(=O)OC(C)(C)C)C1CCCCC1)C2(C)C (stereo partly drawn) | – | 0.28 µM | AUC(0-t) at 6 h [5]: 26 µM·h
2 | CC(C)(C)OC(=O)N[C@H](C(=O)N1C[C@H]2[C@@H]([C@H]1C(=O)NC(CC1CCC1)C(=O)C(N)=O)C2(C)C)C1Cc2ccccc2C1 (stereo partly drawn) | – | 0.27 µM | Activity [3]: >5 µM; EC90 [4]: 2 µM
3 | C=C(C)CC(NC(=O)[C@@H]1[C@@H]2[C@H](CN1C(=O)[C@@H](NC(=O)OC(C)(C)C)C1CCCCC1)C2(C)C)C(=O)C(N)=O (stereo partly drawn) | 2 | 0.3 µM | –
4 | CC(C)CC(NC(=O)[C@@H]1[C@@H]2[C@H](CN1C(=O)[C@@H](NC(=O)OC(C)(C)C)C1CCCCC1)C2(C)C)C(=O)C(N)=O (stereo partly drawn) | 9 | 0.4 µM | –
5 | CCCC(NC(=O)[C@@H]1[C@@H]2[C@H](CN1C(=O)[C@@H](NC(=O)OC(C)(C)C)C1CCCCC1)C2(C)C)C(=O)C(=O)NCC(N)=O (stereo partly drawn) | – | 0.79 µM | –
6 | CC(C)(C)OC(=O)N[C@H](C(=O)N1C[C@H]2[C@@H]([C@H]1C(=O)NC(CC1CC1)C(=O)C(N)=O)C2(C)C)C(C)(C)C (stereo partly drawn) | – | – | Activity [3]: >5 µM; EC90 [4]: 0.6 µM
7 | CC(C)(C)OC(=O)N[C@H](C(=O)N1C[C@H]2[C@@H]([C@H]1C(=O)NC(CC1CCCCC1)C(=O)C(N)=O)C2(C)C)C1CCCCC1 (stereo partly drawn) | – | > 12 µM | –
8 | CCC(NC(=O)[C@@H]1[C@@H]2[C@H](CN1C(=O)[C@@H](NC(=O)OC(C)(C)C)C1CCCCC1)C2(C)C)C(=O)C(N)=O (stereo partly drawn) | – | 0.74 µM | –
9 | CC(C)(C)OC(=O)N[C@H](C(=O)N1C[C@H]2[C@@H]([C@H]1C(=O)NC(CC1CCC1)C(=O)C(N)=O)C2(C)C)C1(C)CC1 (stereo partly drawn) | – | 0.7 µM | –
10 | CC(C)(C)OC(=O)N[C@H](C(=O)N1C[C@H]2[C@@H]([C@H]1C(=O)NC(CC1CC1)C(=O)C(N)=O)C2(C)C)C1(C)CC1 (stereo partly drawn) | – | 0.3 µM | –
11 | CC(C)(C)[C@H](NC(=O)OC1CC1)C(=O)N1C[C@H]2[C@@H]([C@H]1C(=O)NC(CC1CC1)C(=O)C(N)=O)C2(C)C (stereo partly drawn) | – | 0.3 µM | –
12 | CC(C)[C@H](NC(=O)OC(C)(C)C)C(=O)N1C[C@H]2[C@@H]([C@H]1C(=O)NC(CC1CC1)C(=O)C(N)=O)C2(C)C (stereo partly drawn) | 19 | 0.21 µM | –
13 | CC(C)(C)OC(=O)N[C@H](C(=O)N1C[C@H]2[C@@H]([C@H]1C(=O)NC1(C(=O)C(N)=O)CC1)C2(C)C)C1CCCCC1 | – | > 14 µM | –
14 | CCCC(NC(=O)[C@@H]1[C@@H]2[C@H](CN1C(=O)[C@@H](NC(=O)OC(C)(C)C)C1CCCCC1)C2(C)C)C(=O)C(=O)NC (stereo partly drawn) | – | 1.5 µM | AUC(0-t) at 6 h [5]: 13.4 µM·h
15 | CCCCNC(=O)C(=O)C(CCC)NC(=O)[C@@H]1[C@@H]2[C@H](CN1C(=O)[C@@H](NC(=O)OC(C)(C)C)C1CCCCC1)C2(C)C (stereo partly drawn) | – | 1.9 µM | –
16 | C=CCCC(NC(=O)[C@@H]1[C@@H]2[C@H](CN1C(=O)[C@@H](NC(=O)OC(C)(C)C)C1CCCCC1)C2(C)C)C(=O)C(N)=O (stereo partly drawn) | 2 | 0.15 µM | –
17 | CC(C)(C)OC(=O)N[C@H](C(=O)N1C[C@H]2[C@@H]([C@H]1C(=O)NC(CC1CCCC1)C(=O)C(N)=O)C2(C)C)C1CCCCC1 (stereo partly drawn) | 370 | 0.15 µM | –
18 | CCCC(NC(=O)[C@@H]1[C@@H]2[C@H](CN1C(=O)[C@@H](NC(=O)OC(C)(C)C)C1CCCCC1)C2(C)C)C(=O)C(=O)N(C)C (stereo partly drawn) | – | > 13 µM | –
19 | CC(C)(C)OC(=O)N[C@H](C(=O)N1C[C@H]2[C@@H]([C@H]1C(=O)NC(CC1CCC1)C(=O)C(N)=O)C2(C)C)C(C)(C)O (stereo partly drawn) | 55 | 0.22 µM | –
20 | CC(C)(C)OC(=O)N[C@H](C(=O)N1C[C@H]2[C@@H]([C@H]1C(=O)NC(CC1COC1)C(=O)C(N)=O)C2(C)C)C1CCCCC1 (stereo partly drawn) | – | 0.4 µM | Activity [3]: >5 µM; EC90 [4]: > 1 µM

The remaining compounds from weak to strong by Ki [2], led by results:

Row | Selectivity ratio [1] | Ki [2] | SMILES | other results
21 | 100 | 0.15 µM | CC(C)OC(=O)N[C@H](C(=O)N1C[C@H]2[C@@H]([C@H]1C(=O)NC(CC1CC1)C(=O)C(N)=O)C2(C)C)C(C)(C)C (stereo partly drawn) | –
22 | 160 | 0.14 µM | CC(C)NC(=O)N[C@H](C(=O)N1C[C@H]2[C@@H]([C@H]1C(=O)NC(CC1CC1)C(=O)C(N)=O)C2(C)C)C(C)(C)C (stereo partly drawn) | –
23 | – | 0.13 µM | CCCC(NC(=O)[C@@H]1[C@@H]2[C@H](CN1C(=O)[C@@H](NC(=O)OC(C)(C)C)C1CCCCC1)C2(C)C)C(=O)C(=O)NCC(=O)NCC1CC1 (stereo partly drawn) | –
24 | – | 0.11 µM | CCCC(NC(=O)[C@@H]1[C@@H]2[C@H](CN1C(=O)[C@@H](NC(=O)OC(C)(C)C)C1CCCCC1)C2(C)C)C(=O)C(=O)O (stereo partly drawn) | –
25 | 270 | 0.1 µM | CN(C(=O)N[C@H](C(=O)N1C[C@H]2[C@@H]([C@H]1C(=O)NC(CC1CCC1)C(=O)C(N)=O)C2(C)C)C(C)(C)C)C(C)(C)C (stereo partly drawn) | –
26 | 11 | 0.1 µM | CC(C)(C)OC(=O)N[C@H](C(=O)N1C[C@H]2[C@@H]([C@H]1C(=O)NC(CC1CC1)C(=O)C(N)=O)C2(C)C)C1CCCC1 (stereo partly drawn) | –
27 | 3 | 0.1 µM | CCCC(NC(=O)[C@@H]1[C@@H]2[C@H](CN1C(=O)[C@@H](NC(=O)OC(C)(C)C)C1CCCCC1)C2(C)C)C(=O)C(N)=O (stereo partly drawn) | AUC(0-t) at 6 h [5]: 2.52 µM·h
28 | – | 0.1 µM | CCCC(NC(=O)[C@@H]1[C@@H]2[C@H](CN1C(=O)[C@@H](NC(=O)OC(C)(C)C)C1CCCCC1)C2(C)C)C(=O)C(=O)NCC(=O)N[C@H](C)C1CCCCC1 (stereo partly drawn) | AUC [8]: 0.09 µM·h
29 | – | 0.092 µM | CCCC(NC(=O)[C@@H]1[C@@H]2[C@H](CN1C(=O)[C@@H](NC(=O)OC(C)(C)C)C1CCCCC1)C2(C)C)C(=O)C(=O)NCC(=O)N[C@@H](C)C1CCCCC1 (stereo partly drawn) | –
30 | 140 | 0.09 µM | CC(C)(C)OC(=O)N[C@H](C(=O)N1C[C@H]2[C@@H](C1C(=O)NC(CC1CCO1)C(=O)C(N)=O)C2(C)C)C1CCCCC1 (stereo partly drawn) | –
31 | 49 | 0.082 µM | CC(C)(C)OC(=O)N[C@H](C(=O)N1C[C@H]2[C@@H]([C@H]1C(=O)NC(CC1CC1)C(=O)C(N)=O)C2(C)C)C1Cc2ccccc2C1 (stereo partly drawn) | Activity [3]: >5 µM; EC90 [4]: > 1 µM
32 | 100 | 0.08 µM | CC1(NC(=O)N[C@H](C(=O)N2C[C@H]3[C@@H]([C@H]2C(=O)NC(CC2CC2)C(=O)C(N)=O)C3(C)C)C(C)(C)C)CC1 (stereo partly drawn) | Activity [3]: >5 µM; EC90 [4]: 0.9 µM
33 | 684 | 0.076 µM | CC(C)(C)OC(=O)N[C@H](C(=O)N1C[C@H]2[C@@H]([C@H]1C(=O)NC(CC1CCC1)C(=O)C(N)=O)C2(C)C)C(C)(C)C (stereo partly drawn) | Activity [3]: >5 µM; EC90 [4]: 0.8 µM
34 | 160 | 0.07 µM | CC(C)COC(=O)N[C@H](C(=O)N1C[C@H]2[C@@H]([C@H]1C(=O)NC(CC1CC1)C(=O)C(N)=O)C2(C)C)C(C)(C)C (stereo partly drawn) | –
35 | – | 0.06 µM | CCCC(NC(=O)[C@@H]1[C@@H]2[C@H](CN1C(=O)[C@@H](NC(=O)OC(C)(C)C)C1CCCCC1)C2(C)C)C(=O)C(=O)NCC(=O)NCc1cccs1 (stereo partly drawn) | AUC [8]: 0.73 µM·h
36 | 45 | 0.06 µM | CN(C(=O)N[C@H](C(=O)N1C[C@H]2[C@@H]([C@H]1C(=O)NC(CC1CC1)C(=O)C(N)=O)C2(C)C)C(C)(C)C)C(C)(C)C (stereo partly drawn) | Activity [3]: >5 µM; EC90 [4]: > 1 µM
37 | – | 0.056 µM | CCCC(NC(=O)[C@@H]1[C@@H]2[C@H](CN1C(=O)[C@@H](NC(=O)OC(C)(C)C)C1CCCCC1)C2(C)C)C(=O)C(=O)NCC(=O)NCc1ccccc1 (stereo partly drawn) | AUC [8]: 1.27 µM·h
38 | – | 0.055 µM | CCCC(NC(=O)[C@@H]1[C@@H]2[C@H](CN1C(=O)[C@@H](NC(=O)OC(C)(C)C)C1CCCCC1)C2(C)C)C(=O)C(=O)NCC(=O)N[C@H](C)c1ccccc1 (stereo partly drawn) | –
39 | 2 | 0.05 µM | CC(C)(C)OC(=O)N[C@H](C(=O)N1C[C@H]2[C@@H](C1C(=O)NC(CC(F)(F)F)C(=O)C(N)=O)C2(C)C)C1CCCCC1 (stereo partly drawn) | Activity [3]: >5 µM; EC90 [4]: 0.7 µM
40 | 90 | 0.05 µM | CC(C)(C)NC(=O)N[C@H](C(=O)N1C[C@H]2[C@@H]([C@H]1C(=O)NC(CC1CCC1)C(=O)C(N)=O)C2(C)C)C1CCCCC1 (stereo partly drawn) | –
41 | 38 | 0.05 µM | CC(C)(C)NC(=O)N[C@H](C(=O)N1C[C@H]2[C@@H]([C@H]1C(=O)NC(CC1CC1)C(=O)C(N)=O)C2(C)C)C1CCCCC1 (stereo partly drawn) | –
42 | – | 0.05 µM | CCCC(NC(=O)[C@@H]1[C@@H]2[C@H](CN1C(=O)[C@@H](NC(=O)OC(C)(C)C)C1CCCCC1)C2(C)C)C(=O)C(=O)NCC(=O)OC(C)(C)c1ccccc1 (stereo partly drawn) | –
43 | 3800 | 0.036 µM | CC(C)[C@H](C)OC(=O)N[C@H](C(=O)N1C[C@H]2[C@@H]([C@H]1C(=O)NC(CC1CCC1)C(=O)C(N)=O)C2(C)C)C(C)(C)C (stereo partly drawn) | Activity [3]: >5 µM; EC90 [4]: 0.7 µM
44 | 380 | 0.035 µM | C[C@@H](NC(=O)N[C@H](C(=O)N1C[C@H]2[C@@H]([C@H]1C(=O)NC(CC1CCC1)C(=O)C(N)=O)C2(C)C)C(C)(C)C)C(C)(C)C (stereo partly drawn) | Activity [3]: >5 µM; EC90 [4]: 0.4 µM
45 | 23 | 0.025 µM | CC(C)(C)OC(=O)N[C@H](C(=O)N1C[C@H]2[C@@H]([C@H]1C(=O)NC(CC1CC1)C(=O)C(N)=O)C2(C)C)C1CCCCC1 (stereo partly drawn) | Activity [3]: >5 µM; AUC [6]: 1.3 µM·h; bioavailability [7]: 3.4%; EC90 [4]: 0.4 µM
46 | 4200 | 0.016 µM | CC(C)NC(=O)N[C@H](C(=O)N1C[C@H]2[C@@H]([C@H]1C(=O)NC(CC1CCC1)C(=O)C(N)=O)C2(C)C)C(C)(C)C (stereo partly drawn) | Activity [3]: >5 µM; AUC [6]: 0.83 µM·h; bioavailability [7]: 13%; EC90 [4]: 0.73 µM
